Changes are numbered by the printed parent chain. Blank lines part the entries; values can stand above or below the compound they belong to.
Columns and labels:
[1] = tested on: ERα, GREB1 distal ERE, MCF7 cells; test: ChIP of ERα at GREB1 ERE's; type: cell-based; conditions: 10 nM estradiol, six hours
[2] = tested on: TRIM24, GREB1 distal ERE, MCF7 cells; test: ChIP of TRIM24 at GREB1 ERE's; type: cell-based; conditions: 10 nM estradiol, six hours
[3] = biological target: T1, TRIM24 PHD-Bromo (F979A/N980A) (Homo sapiens, UniProt O15164, F979A/N980A); test: ITC binding of histone peptides
T1 sequence (O15164 824-1006 F979A/N980A): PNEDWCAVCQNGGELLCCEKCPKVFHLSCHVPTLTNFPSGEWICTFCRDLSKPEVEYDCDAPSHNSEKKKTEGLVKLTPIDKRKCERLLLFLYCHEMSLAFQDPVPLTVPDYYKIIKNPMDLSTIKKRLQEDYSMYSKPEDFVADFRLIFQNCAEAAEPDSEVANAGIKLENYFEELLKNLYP

TRIM24 PHD-Bromo (WT) = biological target: T2, TRIM24 PHD-Bromo (WT) (Homo sapiens, UniProt O15164); test: ITC binding of histone peptides; conditions: PHD-Bromo (bromodomain binding)
T2 sequence (O15164 824-1006): T1 sequence (O15164 824-1006 F979A/N980A) with A156F, A157N

Compound: C[C@]12CC[C@@H]3c4ccc(O)cc4CC[C@H]3[C@@H]1CC[C@@H]2O [estradiol]
- increase of ERα binding [1]: 7 fold
- increase of TRIM24 binding [2]: 6 fold

- binding affinity in words [3]: loses most of the binding affinity
Compound: H3(13-32)K23ac: H3(13–32) peptide bearing acetylated K23; ITC values are those of the -Bio form

- binding affinity in words (TRIM24 PHD-Bromo (WT)): weak binding affinity
Compound: H3(13-32)K27ac: H3(13–32) peptide, K27ac; ITC values are those of the -Bio form

— PMC3058826 (Nature, 2010)
